According to patent publication US8324345B2, “HLA-binding peptide, precursor thereof, DNA fragment and recombinant vector encoding the same” (priority 2006, dated 2012):
No end group written: not given here.

The sequences below were run against HLA-A2 molecule (the product of HLA-A*0201 gene) (Homo sapiens, UniProt P04439, D140Y/D185E/D98H/E176V/E277Q/G131W/G231S/I119V/I121R/I166T/I218V/L300P/L318F/N151K/N90K/P208A/P217A/Q86G/Q94H/R138H/R169H/T345S) (assay: Binding experiment of the peptides to an HLA-A0201 molecule (JY cells, flow cytometry)). Settings: not given.
Method: After neutralization, a reassemble experiment was performed.
The above JY cells and purified β 2 m were added to a serial dilution of the peptide whose binding affinity was to be measured. Then, the mixture was incubated on ice for 4 hours.

Point of comparison: PLNEAIMAV [compound 29], Kd 320 nM. Against it:
- YMPSVIEKM [compound 39] — within 1.5-fold, 266 nM
- IVLEHGSCV [compound 27] — 5.7-fold higher, 1830 nM
- SLRPQPTEL [compound 34] — 28-fold higher, 8910 nM
- FQPESPSKL [compound 36] — 1.5-fold higher, 487 nM
- ELPETLETL [compound 40] — within 1.5-fold, 474 nM
- FLIDGPETA [compound 35] — 2.8-fold higher, 883 nM
- ALHQVFGAI [compound 38] — 1.9-fold lower, 170 nM
- LLFKTENGV [compound 28] — 9.6-fold lower, 33.5 nM
- NLVRLQSGV [compound 30] — 63-fold higher, 20100 nM
- ILIRTGLLV [compound 33] — within 1.5-fold, 298 nM

These sequences were tested on human HLA-A type molecule (assay: Binding experiments, summary statement for HLA-A type molecules). Settings: summary of the binding experiments.
Method: The peptides' binding affinity to an HLA-A24 molecule (the product of HLA-A*2402 gene) was measured by using C1R-A24 cells that express the HLA-A*2402 gene (produced by and provided with permission of Professor Masafumi Takiguchi, Kumamoto University).

In the case of ALVAFLRFL [SEQ ID NO 21], the “binding affinity to a human HLA-A type molecule (in words)” value is reported as “experimentally confirmed to have binding affinity”.

The sequences below were run against HLA-A2 molecule (the product of HLA-A*0206 gene) (Homo sapiens, UniProt P04439, D140Y/D185E/D98H/E176V/E277Q/F33Y/G131W/G231S/I119V/I121R/I166T/I218V/L300P/L318F/N151K/N90K/P208A/P217A/Q86G/Q94H/R138H/R169H/T345S) (assay: cell-based). Settings: not given.

Point of comparison: LVISGLFPV [compound 41], Kd 245 nM. Against it:
- SVIEKMEAL [compound 48] — 1.7-fold higher, 422 nM
- ALVAFLRFL [SEQ ID NO 21] — 4.4-fold higher, 1080 nM
- IVLEHGSCV [compound 46] — 3.9-fold higher, 952 nM
- QILEENVEV [compound 50] — 10-fold higher, 2480 nM
- HVLGRLITV [compound 45] — 2.3-fold higher, 557 nM
- YVVIAILTV [compound 47] — 5.6-fold higher, 1380 nM
- LALLAAFKV [compound 43] — within 1.5-fold, 341 nM
